Experimental data reported in ChEMBL document CHEMBL1129438, “Neighboring group catalysis in the design of nucleotide prodrugs” (J Med Chem, 1996).

Key:
[1] = Half life (t 1/2) during pig liver esterase-catalyzed hydrolysis; type: ADME, organism-based, Sus scrofa
[2] = Half life (t 1/2) during base-catalyzed hydrolysis; type: ADME
[3] = Half life (t 1/2) during hydrolysis catalyzed by brain extract; type: ADME, tissue-based
[4] = Half life (t 1/2) during hydrolysis caused by human serum; type: ADME, organism-based

SMILES | half-life [1] | half-life [2] | half-life [3] | half-life [4]
[N-]=[N+]=N[C@H]1C[C@H](n2ccc(=O)[nH]c2=O)O[C@@H]1COP(=O)(OC[C@H]1O[C@@H](n2ccc(=O)[nH]c2=O)C[C@@H]1N=[N+]=[N-])Oc1ccccc1C(=O)Oc1ccccc1 | 1 h | 1.1 h | 5 h | 4 h
[N-]=[N+]=N[C@H]1C[C@H](n2ccc(=O)[nH]c2=O)O[C@@H]1COP(=O)(OC[C@H]1O[C@@H](n2ccc(=O)[nH]c2=O)C[C@@H]1N=[N+]=[N-])Oc1ccccc1 | 17 h | 17 h | 17 h | 17 h
O=C(OC1O[C@H](CO)[C@@H](O)[C@H](O)[C@H]1O)c1ccccc1OP(=O)(OC[C@@H]1CC[C@H](n2ccc(=O)[nH]c2=O)O1)OC[C@@H]1CC[C@H](n2ccc(=O)[nH]c2=O)O1 (stereo partly specified) | > 48 h | 17 h | > 72 h | 48 h
COC(=O)c1ccccc1OP(=O)(OC[C@H]1O[C@@H](n2ccc(=O)[nH]c2=O)C[C@@H]1N=[N+]=[N-])OC[C@H]1O[C@@H](n2ccc(=O)[nH]c2=O)C[C@@H]1N=[N+]=[N-] | 20 h | 1.1 h | 4 h | 4 h
